Experimental data taken from US20180273531A1, “PYRIMIDINE COMPOUND AND MEDICAL USE THEREOF” (Japan Tobacco Inc., priority 2004, published 2018).

Tests used:
[1] = system: colorectal cancer cell line HT-29 cells; experiment: Growth inhibitory effect against cancer cell lines (3H-thymidine uptake), HT-29; format: cell-based; conditions: Homo sapiens, HT-29, inhibition of 3H-thymidine uptake; test substance 18 hrs, then 3H-thymidine 6 hrs; triplicate
Method in brief: (§1)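 Cells seeded at 1.0×10^4/well, grown 24 hrs, then exposed to compound in DMSO for 18 hrs before 6 hrs pulse with ^3H-thymidine (0.25 μCi/well). Harvested cell-incorporated radioactivity counted; IC50 is the concentration halving uptake versus DMSO control, triplicate.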

p15 protein = experiment: Evaluation of p15 induction activity (Western blotting); format: cell-based; conditions: test substance 0.1 μM, 24 hrs, ACHN cells or HT-29 cells, compared to DMSO, n=2
Method in brief: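 p15 protein quantified by densitometry of anti-p15 Western blots (10 μg protein per lane, mean of n=2). Samples came from HT-29 or ACHN cells given 0.1 μM compound for 24 h after 24 h plating, with DMSO as control.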

[2] = system: ACHN cells or HT-29 cells; experiment: Cell cycle analysis (flow cytometry, CycleTEST PLUS); format: cell-based; conditions: test substance less than 10 μM, 24 hrs, compared to DMSO, n=2, read-out: CELL RATIO OF G0/G1 PHASE
Procedure: ACHN cells or HT-29 cells were cultured in a 6 well plate at 2.5×10^5 cells/1.8 mL/well for 24 hrs, then a test substance (less than 10 μM) dissolved in DMSO was added. After 24 hrs, cells were detached using trypsin-EDTA and the DNA content of single cell was analyzed by flow cytometry method using a CycleTEST PLUS (BECKTON DICKINSON) kit, and the proportion of the cells in the G0/G1 phase·S phase·G2/M phase was calculated. As a control, DMSO was used and the test was performed with n=2.

HT-29 cells = experiment: Evaluation on the nude-mouse xenograft model; format: in vivo, mouse (Balb/c-nu/nu); conditions: HT-29, po, 240 h, 30 mg/kg orally twice a day for 10 days, tumor volume, treated vs vehicle group, n=6-8, read-out: T/C(%)
Procedure: HT-29 cells (5.0×10^6 cells/100 μL/head, suspended in HBSS (Hanks' solution)) in the logarithmic growth phase were implanted in a mouse (Balb/c-nu/nu) at the right lateral abdomen under ether anesthesia. After 5 days of implantation, the long diameter and short diameter of the tumor were measured, and the mice were divided into groups such that each group has an equivalent average tumor volume. For grouping, a grouping soft (general grouping system (Visions) was used. From the next day of the grouping, a test substance suspended in 0.5% MC (methyl cellulose) was repeatedly orally administered twice a day for 10 days (30 mg/kg). The tumor volume was measured twice a week and used as an index of antitumor activity. As a control, 0.5% MC was used and the test was performed with n=6-8.
The index (T/C (%)) of the antitumor activity was calculated according to the following formula.
T/C(%)=(The average tumor volume of the group treated with a test substance)/(The average tumor volume of the Vehicle group)×100
The tumor volume was calculated according to the following formula.
Tumor volume(mm^3)=L×W×W/2
(L: long diameter (mm) of tumor, W: short diameter (mm) of tumor)

[3] = system: Renal cancer cell line ACHN cell; experiment: Growth inhibitory effect against cancer cell lines (3H-thymidine uptake), ACHN; format: cell-based; conditions: Homo sapiens, ACHN
Method in brief: as §1

p27 protein = p27 protein induction test (Western blotting); format: cell-based; conditions: test substance (0.1 1M), 24 hrs, ACHN cells or HT-29 cells, compared to DMSO, n=2
Method in brief: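 ACHN or HT-29 cells grown 24 h, then treated with test substance at […] (DMSO) for 24 h. Lysates normalised by protein content and probed by Western blot with anti-p27 antibody. Band density quantified by densitometer against DMSO control, n=2 averaged.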

TNF-α or IL-6 = experiment: Evaluation on inflammatory cytokine production (LPS-stimulated PBMC); format: cell-based; conditions: human PBMC stimulated with LPS

IC50 [1] | IC50 [3] | SMILES | fold induction at 0.1 µM (p15 protein) | fold induction [2] | response vs control in vivo at 30 mg/kg (HT-29 cells) | fold induction at 0.1 µM (p27 protein) | fold induction at up to 10 µM [2] | production of TNF-α or IL-6 (TNF-α or IL-6)
100 to 1000 nM |  | Cc1cc(N(C)C)ccc1Nc1cc(=O)n(C)c2c1c(=O)n(-c1ccccc1)c(=O)n2-c1ccccc1 [Example 1-55] | ≥ 1.5 | ≥ 1.2 |  |  |  | 
< 10 nM | 10 to 100 nM | C#Cc1ccc(Nc2c3c(=O)n(C)c(=O)n(-c4cccc(NS(C)(=O)=O)c4)c3c(C)c(=O)n2C)c(F)c1 [Example 4-49] | ≥ 1.5 |  | 35% | ≥ 1.5 |  | 
< 10 nM | 10 to 100 nM | C#Cc1ccc(Nc2c3c(=O)n(C4CC4)c(=O)n(-c4cccc(NC(C)=O)c4)c3c(C)c(=O)n2C)c(F)c1 [Example 4-3, N-{3-[3-cyclopropyl-5-(4-ethynyl-2-fluorophenylamino)-6,8-dimethyl-2,4,7-trioxo-3,4,6,7-tetrahydro-2H-pyrido[4,3-d]pyrimidin-1-yl]phenyl}acetamide] | ≥ 1.5 |  |  | ≥ 1.5 | ≥ 1.2 | 
< 10 nM | < 10 nM | CC(=O)Nc1cccc(-n2c(=O)n(C3CC3)c(=O)c3c(Nc4ccc(I)cc4F)n(C)c(=O)c(C)c32)c1 [Example 4-1, N-{3-[3-cyclopropyl-5-(2-fluoro-4-iodophenylamino)-6,8-dimethyl-2,4,7-trioxo-3,4,6,7-tetrahydro-2H-pyrido[4,3-d]pyrimidin-1-yl]-phenyl}-acetamide] |  |  | 3% |  |  | suppressed
100 to 1000 nM |  | Cc1ccccc1-n1c(=O)n(C)c(=O)c2c(Nc3ccc(Br)cc3)cc(=O)n(C)c21 [Example 1-95] | ≥ 1.5 | ≥ 1.2 |  |  |  | 
< 10 nM | < 10 nM | Cc1c(=O)n(C)c(Nc2ccc(I)cc2F)c2c(=O)n(C3CC3)c(=O)n(-c3cccc(NS(N)(=O)=O)c3)c12 [Example 4-54] | ≥ 1.5 |  | 11% | ≥ 1.5 |  | 
< 10 nM | 10 to 100 nM | C#Cc1ccc(Nc2c3c(=O)n(C4CC4)c(=O)n(-c4cccc(NS(C)(=O)=O)c4)c3c(C)c(=O)n2C)c(F)c1 [Example 3-8] | ≥ 1.5 |  | 27% |  |  | 
 |  | Cc1ccc(Nc2cc(=O)n(C)c3c2c(=O)n(-c2ccccc2)c(=O)n3-c2ccccc2)cc1 [Example 1-6] | ≥ 1.5 | ≥ 1.2 |  |  |  | 
< 10 nM | < 10 nM | Cc1c(=O)n(C)c(Nc2ccc(I)cc2F)c2c(=O)n(C3CC3)c(=O)n(-c3ccc(S(N)(=O)=O)cc3)c12 [Example 4-104] | ≥ 1.5 |  |  | ≥ 1.5 | ≥ 1.2 | 
 |  | CCn1c(=O)c2c(Nc3ccc(Cl)cc3)cc(=O)n(C)c2n(-c2ccccc2)c1=O [Example 1-78] | ≥ 1.5 | ≥ 1.2 |  |  |  | 
 |  | Cc1ccccc1-n1c(=O)n(C2CC2)c(=O)c2c(Nc3ccc(Cl)cc3)cc(=O)n(C)c21 [Example 1-102] | ≥ 1.5 | ≥ 1.2 |  |  |  | 
 |  | CCCCc1ccccc1Nc1cc(=O)n(C)c2c1c(=O)n(-c1ccccc1)c(=O)n2-c1ccccc1 [Example 1-51] | ≥ 1.5 | ≥ 1.2 |  |  |  | 
100 to 1000 nM |  | CN(C)c1ccc(Nc2cc(=O)n(C)c3c2c(=O)n(-c2ccccc2)c(=O)n3-c2ccccc2)cc1 [Example 1-7] | ≥ 1.5 | ≥ 1.2 |  |  |  | 
< 10 nM | 10 to 100 nM | CC(=O)Nc1cccc(-n2c(=O)n(C)c(=O)c3c(Nc4ccc(I)cc4F)n(C)c(=O)c(C)c32)c1 [Example 4-15] | ≥ 1.5 |  | 31% | ≥ 1.5 |  | 
100 to 1000 nM |  | Cn1c(=O)cc(Nc2ccc(Cl)cc2)c2c(=O)n(C3CC3)c(=O)n(-c3ccccc3F)c21 [Example 1-100] | ≥ 1.5 | ≥ 1.2 |  |  |  | 
 |  | COc1ccc(Nc2cc(=O)n(C)c3c2c(=O)n(-c2ccccc2)c(=O)n3-c2ccccc2)cc1 [Example 1-9] | ≥ 1.5 | ≥ 1.2 |  |  |  | 
< 10 nM | 10 to 100 nM | Cc1c(=O)n(C)c(Nc2ccc(I)cc2F)c2c(=O)n(C3CC3)c(=O)n(-c3ccc(NS(C)(=O)=O)cc3)c12 [Example 4-70] | ≥ 1.5 |  | 31% | ≥ 1.5 | ≥ 1.2 | 

IC50 [1] | IC50 [3] | SMILES | fold induction at 0.1 µM (p15 protein) | fold induction [2] | response vs control in vivo at 30 mg/kg (HT-29 cells) | fold induction at 0.1 µM (p27 protein) | fold induction at up to 10 µM [2] | production of TNF-α or IL-6 (TNF-α or IL-6)
100 to 1000 nM |  | CCn1c(=O)c2c(Nc3ccc(N(C)C)cc3)cc(=O)n(C)c2n(-c2ccccc2)c1=O [Example 1-97] | ≥ 1.5 | ≥ 1.2 |  |  |  | 
 |  | Cc1ccccc1-n1c(=O)n(C)c(=O)c2c(Nc3ccc(Cl)cc3)cc(=O)n(C)c21 [Example 1-85] | ≥ 1.5 | ≥ 1.2 |  |  |  | 
 |  | Cc1ccc(Nc2cc(=O)n(C)c3c2c(=O)n(-c2ccccc2)c(=O)n3-c2ccccc2)c(Cl)c1 [Example 1-34] | ≥ 1.5 | ≥ 1.2 |  |  |  | 
< 10 nM | 10 to 100 nM | Cc1c(=O)n(C)c(Nc2ccc(I)cc2F)c2c(=O)n(C3CC3)c(=O)n(-c3cccc(NC(=O)CO)c3)c12 [Example 4-82] | ≥ 1.5 |  |  | ≥ 1.5 | ≥ 1.2 | 
100 to 1000 nM |  | Cc1ccccc1-n1c(=O)n(C)c(=O)c2c(Nc3ccc(N(C)C)cc3)cc(=O)n(C)c21 [Example 1-99] | ≥ 1.5 | ≥ 1.2 |  |  |  | 
< 10 nM | < 10 nM | Cc1c(=O)n(C)c(Nc2ccc(I)cc2F)c2c(=O)n(C3CC3)c(=O)n(-c3ccc4oc(=O)[nH]c4c3)c12 [Example 4-126] | ≥ 1.5 |  |  | ≥ 1.5 | ≥ 1.2 | 
100 to 1000 nM |  | Cn1c(=O)cc(Nc2ccc(Br)cc2)c2c(=O)n(-c3ccccc3)c(=O)n(-c3ccccc3)c21 [Example 1-11] | ≥ 1.5 | ≥ 1.2 |  |  |  | 
 |  | Cn1c(=O)cc(Nc2ccccc2Cl)c2c(=O)n(-c3ccccc3)c(=O)n(-c3ccccc3)c21 [Example 1-4] | ≥ 1.5 | ≥ 1.2 |  |  |  | 
 |  | Cn1c(=O)cc(Nc2ccc(Br)cc2)c2c(=O)n(CC(F)(F)F)c(=O)n(-c3ccccc3)c21 [Example 1-92] | ≥ 1.5 | ≥ 1.2 |  |  |  | 
 |  | COc1ccccc1-n1c(=O)n(C2CC2)c(=O)c2c(Nc3ccc(Cl)cc3)cc(=O)n(C)c21 [Example 1-104] | ≥ 1.5 | ≥ 1.2 |  |  |  | 
 |  | Cn1c(=O)cc(Nc2ccc(C(F)(F)F)cc2)c2c(=O)n(-c3ccccc3)c(=O)n(-c3ccccc3)c21 [Example 1-33] | ≥ 1.5 | ≥ 1.2 |  |  |  | 
10 to 100 nM | 100 to 1000 nM | Cn1c(=O)cc(Nc2ccc(Br)cc2)c2c(=O)n(C3CC3)c(=O)n(-c3ccccc3)c21 [Example 1-89] | ≥ 1.5 | ≥ 1.2 |  | ≥ 1.5 |  | 
 |  | CCc1ccccc1Nc1cc(=O)n(C)c2c1c(=O)n(-c1ccccc1)c(=O)n2-c1ccccc1 [Example 1-38] | ≥ 1.5 | ≥ 1.2 |  |  |  | 
 |  | Cc1cccc(-n2c(=O)n(C)c(=O)c3c(Nc4ccc(Cl)cc4)cc(=O)n(C)c32)c1 [Example 1-86] | ≥ 1.5 | ≥ 1.2 |  |  |  | 
 |  | Cn1c(=O)cc(Nc2ccc(Cl)cc2Cl)c2c(=O)n(-c3ccccc3)c(=O)n(-c3ccccc3)c21 [Example 1-26] | ≥ 1.5 | ≥ 1.2 |  |  |  | 
100 to 1000 nM | 100 to 1000 nM | CN(C)c1ccc(Nc2cc(=O)n(C)c3c2c(=O)n(C2CC2)c(=O)n3-c2ccccc2)cc1 [Example 1-88] | ≥ 1.5 | ≥ 1.2 |  |  |  | 
